Assay results published in US9682954B2, “Phenanthridine derivatives, preparation methods and uses thereof” (Kunming Institute of Botany, The Chinese Academy of Sciences, priority 2013, dated 2017).
Like-named read-outs stand apart in the source and are kept apart here.

Experiments:
[1] = system: Wnt signaling pathway; experiment: Activity assay of the reporter gene (Wnt signaling pathway activation, Wnt3a conditioned medium); type: cell-based; conditions: for activation of the reporter gene systems of classical Wnt signaling pathway: in the way of depending on Wnt3a receptors; for Concentration of compounds for doubly synergetic activating Wnt reporter gene: with Wnt3a conditioned medium
Experimental: After 6 hours, the cells are collected and activities of the report genes are determined.
Activity Assay of the Reporter Gene
HEK293T, HCT116, SW480 or NIH3T3 cells used for activity assay of the reporter gene were inoculated into 24-wells plates respectively 24 hours before transfection then transfected following the above mentioned reference method. The amount of the plasmids used for Transfection was: 20 ng of TOPFlash, NFAT-Luc, or SRF-Luc, and 25 ng of EGFP-C1 (HEK293T); 25 ng of LEF-Luc, 75 ng of LEF1, and 25 ng of EGFP-C1 (NIH3T3); 100 ng of TOPFlash or Fopfllash and 100 ng of EGFP-C1 (HCT116 and SW480). The cells were transfected with other plasmids following experimental requirements, LacZs were added to meet a total content of 250 ng (in RNAi and plasmid co-transfection experiments, 1 μl of siRNA was added when every 100 ng/well of the plasmid was transfected). Wnt3a conditioned medium was added 18 hours after transfection to stimulate the cells for 6-8 hours, the cells were lysed using Boehringer Mannheim Luci-ferase Assay Kit (200 μl/well). Intensity of GFP proteins in cell lysates were determined as internal standards of expression quantity of the cells using fluorescence meter FL600 (BIO-TEK Inc. Winooski, Vt.), and then 20 μl of luciferase substrates were added. Luciferase activity was determined with Micro Lumate Plus (Perkin Elmer Inc. Wellesley, Mass.) luminometer. Finally, the luciferase activity was homogenized using activity of GFP.

[2] = in vitro; conditions: human
Experimental: (§1) (1) Toxicity Experiment of the Compound on Huh7.5:
(§2) 100 μL of Huh7.5 cells (1×10^5/ml) was inoculated in 96-wells plates and incubated in an incubator at 37° C. under 5% of CO2 and saturated humidity for 24 hrs. Then different concentration of the compound of the present invention and positive control (VX-950, telaprevir) were added respectively and incubated for a further 72 hrs. 10 μL of MTT (5 mg/mL) was added per well and incubated for another 4 hrs. After the cells were lysed with DMSO, OD570-630 […] was determined on ELIASA. In comparison with OD of the control group, inhibitory rate of each concentration on cell toxicity was calculated, and half toxic concentration of the compound was calculated with Reed-Muench method.

[3] = system: HCV; experiment: microbe, parasite or virus in culture; type: cell-based, Hepatitis C Virus (HCV); conditions: Huh7.5 cells infected with HCV, intracellular HCV RNA by qRT-PCR, Reed-Muench method
Experimental: (2) Anti-HCV Activity of the Compound in Cells:
The total RNA was extracted from the cells. The intracellular content of HCV and RNA of internal control gene GAPDH were determined by real-time fluorescence qRT-PCR.

[4] = system: Huh7.5 cells; experiment: in vitro
Experimental: as §1, §2

[5] = Hepatitis C virus, Huh7.5, 72 h

| Compound | CC50 at 72 h [2] [µM] | EC50 [3, 5] [µM] | other results |
| --- | --- | --- | --- |
| CCc1cccc2c1N(C)Cc1cc3c(cc1-2)OCO3 [Compound 9, 4-ethyl-5-methyl-5,6-dihydro-[1,3]dioxolo[4,5-j]phenanthridine] |  |  | activation of the reporter gene systems of classical Wnt signaling pathway [1]: activate the reporter gene systems of classical Wnt signaling pathway; Concentration of compounds for doubly synergetic activating Wnt reporter gene [1]: 3.75 µM |
| CCc1cccc2c1N(C)Cc1cc(O)c(O)cc1-2 [Compound 10, 4-ethyl-5-methyl-5,6-dihydro-phenanthridine-8,9-diol] | 61.3 ± 8.4 | > 11.1 |  |
| CCc1cccc2c1N(C)Cc1cc(OC)c(OC)cc1-2 [Compound 10a, 4-ethyl-5-methyl-8,9-dimethoxy-5,6-dihydro-phenanthridine] | > 100 | < 0.41 |  |
| CCOc1cc2c(cc1OCC)-c1cccc(CC)c1N(C)C2 [Compound 10b, 4-ethyl-5-methyl-8,9-diethyoxy-5,6-dihydro-phenanthridine] |  |  | CC50 [4]: > 100 µM; EC50 ([3]; 72 hrs, read-out: EC50): 1.63 ± 1.22 µM |
| C=CCOc1cc2c(cc1OCC=C)-c1cccc(CC)c1N(C)C2 [Compound 10c, 4-ethyl-5-methyl-8,9-diallyloxy-5,6-dihydro-phenanthridine] | > 100 | 16.3 ± 10.1 |  |
| C#CCOc1cc2c(cc1OCC#C)-c1cccc(CC)c1N(C)C2 [Compound 10d, 4-ethyl-5-methyl-8,9-diprop-2-ynyloxy-5,6-dihydro-phenanthridine] | 58.3 ± 2.1 | 0.83 ± 0.35 |  |
| CCc1cccc2c1N(C)Cc1cc(OCC3CCC3)c(OCC3CCC3)cc1-2 [Compound 10e, 4-ethyl-5-methyl-8,9-bis-cyclobutylmethoxy-5,6-dihydro-phenanthridine] | > 100 | 9.5 ± 2.71 |  |
| CCc1cccc2c1N(C)Cc1cc(OCC3CCCCC3)c(OCC3CCCCC3)cc1-2 [Compound 10f, 4-ethyl-5-methyl-8,9-bis-cyclohexylmethoxy-5,6-dihydro-phenanthridine] | > 100 | 10.8 ± 2.86 |  |
| CCc1cccc2c1N(C)Cc1cc(OCc3ccccc3)c(OCc3ccccc3)cc1-2 [Compound 10g, 4-ethyl-5-methyl-8,9-dibenzyloxy-5,6-dihydro-phenanthridine] | 30.2 ± 0.6 | 1.25 ± 0.56 |  |
| CCc1cccc2c1N(C)Cc1cc(OCc3cccc(OC)c3OC)c(OCc3cccc(OC)c3OC)cc1-2 [Compound 10h, 4-ethyl-5-methyl-8,9-di(2,3-dimethoxy)benzyloxy-5,6-dihydro-phenanthridine] |  |  | CC50 [4]: > 100 µM; EC50 ([3]; 72 hrs, read-out: EC50): 4.32 ± 0.1 µM |
| CCc1cccc2c1N(C)Cc1cc(OC(C)=O)c(OC(C)=O)cc1-2 [Compound 10j, 4-ethyl-5-methyl-8,9-diacetoxy-5,6-dihydro-phenanthridine] | 90.1 ± 7.4 | 0.23 ± 0.08 |  |
| CCc1cccc2c1N(C)Cc1cc(OC(=O)C(C)C)c(OC(=O)C(C)C)cc1-2 [Compound 10l, 4-ethyl-5-methyl-8,9-diisobutyryloxy-5,6-dihydro-phenanthridine] | > 100 | 13.9 ± 11.4 |  |
| CCCCC(=O)Oc1cc2c(cc1OC(=O)CCCC)-c1cccc(CC)c1N(C)C2 [Compound 10m, 4-ethyl-5-methyl-8,9-divaleryoxy-5,6-dihydro-phenanthridine] |  |  | CC50 [4]: > 100 µM; EC50 ([3]; 72 hrs, read-out: EC50): 9.39 ± 0.46 µM |
| CCc1cccc2c1N(C)Cc1cc(OC(=O)CC(C)C)c(OC(=O)CC(C)C)cc1-2 [Compound 10n, 4-ethyl-5-methyl-8,9-diisovaleroxy-5,6-dihydro-phenanthridine] | 50.3 ± 1 | 1.43 ± 0.45 |  |
| CCc1cccc2c1N(C)Cc1cc(OC(=O)c3ccccc3)c(OC(=O)c3ccccc3)cc1-2 [Compound 10o, 4-ethyl-5-methyl-8,9-dibenzoyloxy-5,6-dihydro-phenanthridine] | 91.5 ± 4.19 | 11 ± 2.23 |  |
| CCc1cccc2c1N(C)Cc1cc(OC(=O)c3ccc(Br)cc3)c(OC(=O)c3ccc(Br)cc3)cc1-2 [Compound 10p, 4-ethyl-5-methyl-8,9-di(4-bromo)benzoyloxy-5,6-dihydro-phenanthridine] |  |  | CC50 [4]: > 100 µM; EC50 ([3]; 72 hrs, read-out: EC50): 1.19 ± 0.02 µM |
| CCc1cccc2c1N(C)Cc1cc(OCc3cn(CCNC(C)=O)nn3)c(OCc3cn(CCNC(C)=O)nn3)cc1-2 [Compound 10r, 4-ethyl-5-methyl-8,9-bis[1-(2-acetylamino-ethyl)-1H-[1,2,3]triazol-4-ylmethoxy]-5,6-dihydro-phenanthridine] |  |  | activation of the reporter gene systems of classical Wnt signaling pathway [1]: activate the reporter gene systems of classical Wnt signaling pathway; Concentration of compounds for doubly synergetic activating Wnt reporter gene [1]: 1.25 µM |
| C=Cc1cccc2c1N(C)Cc1cc(O)c(O)cc1-2 [Compound 11, 4-ethenyl-5-methyl-5,6-dihydrophenanthridine-8,9-diol] | > 100 | 8.37 ± 2.39 |  |
| C=CCOc1cc2c(cc1OCC=C)-c1cccc(C=C)c1N(C)C2 [Compound 11a, 4-ethenyl-5-methyl-8,9-diallyloxy-5,6-dihydro-phenanthridine] | > 100 | 28.8 ± 5.38 |  |
| C#CCOc1cc2c(cc1OCC#C)-c1cccc(C=C)c1N(C)C2 [Compound 11b, 4-ethenyl-5-methyl-8,9-di(prop-2-ynyloxy)-5,6-dihydro-phenanthridine] | > 100 | 4.2 ± 1.72 |  |
| C=Cc1cccc2c1N(C)Cc1cc(OCC3CCC3)c(OCC3CCC3)cc1-2 [Compound 11c, 4-ethenyl-5-methyl-8,9-bis-cyclobutylmethoxy-5,6-dihydro-phenanthridine] | > 100 | 11.3 ± 1.66 |  |
| C=Cc1cccc2c1N(C)Cc1cc(OCC3CCCCC3)c(OCC3CCCCC3)cc1-2 [Compound 11d, 4-ethenyl-5-methyl-8,9-bis-cyclohexylmethoxy-5,6-dihydro-phenanthridine] | > 100 | > 33.3 |  |
| C=Cc1cccc2c1N(C)Cc1cc(OCc3ccccc3)c(OCc3ccccc3)cc1-2 [Compound 11e, 4-ethenyl-5-methyl-8,9-dibenzyloxy-5,6-dihydro-phenanthridine] | > 100 | 13.4 ± 0.98 |  |
| C=Cc1cccc2c1N(C)Cc1cc(OC(C)=O)c(OC(C)=O)cc1-2 [Compound 11h, 4-ethenyl-5-methyl-8,9-diacetoxy-5,6-dihydro-phenanthridine] | > 100 | 1.63 ± 0.91 |  |
| C=Cc1cccc2c1N(C)Cc1cc(OC(=O)CC)c(OC(=O)CC)cc1-2 [Compound 11i, 4-ethenyl-5-methyl-8,9-dipropionyloxy-5,6-dihydro-phenanthridine] | > 100 | 1.02 ± 0.16 |  |
| C=Cc1cccc2c1N(C)Cc1cc(OC(=O)C(C)C)c(OC(=O)C(C)C)cc1-2 [Compound 11j, 4-ethenyl-5-methyl-8,9-diisobutyryloxy-5,6-dihydro-phenanthridine] | > 100 | 1.83 ± 0.17 |  |
| C=Cc1cccc2c1N(C)Cc1cc(OC(=O)CC(C)C)c(OC(=O)CC(C)C)cc1-2 [Compound 11l, 4-ethenyl-5-methyl-8,9-diisovaleroxy-5,6-dihydro-phenanthridine] | > 100 | 3.27 ± 1.26 |  |
| C=Cc1cccc2c1N(C)Cc1cc(OC(=O)c3ccccc3)c(OC(=O)c3ccccc3)cc1-2 [Compound 11m, 4-ethenyl-5-methyl-8,9-dibenzoyloxy-5,6-dihydro-phenanthridine] | > 100 | 1.03 ± 0.07 |  |
| C=Cc1cccc2c1N(C)Cc1cc(OCc3cn(CCN)nn3)c(OCc3cn(CCN)nn3)cc1-2 [Compound 11q, 4-ethenyl-5-methyl-8,9-bis[1-(2-amino-ethyl)-1H-[1,2,3]triazol-4-ylmethoxy]-5,6-dihydrophenanthridine] |  |  | activation of the reporter gene systems of classical Wnt signaling pathway [1]: activate the reporter gene systems of classical Wnt signaling pathway; Concentration of compounds for doubly synergetic activating Wnt reporter gene [1]: 2.5 µM |
| C=Cc1cccc2c1N(C)Cc1cc(OCc3cn(CCNC(C)=O)nn3)c(OCc3cn(CCNC(C)=O)nn3)cc1-2 [Compound 11r, 4-ethenyl-5-methyl-8,9-bis[1-(2-acetylamino-ethyl)-1H-[1,2,3]triazol-4-ylmethoxy]-5,6-dihydro-phenanthridine] |  |  | activation of the reporter gene systems of classical Wnt signaling pathway [1]: activate the reporter gene systems of classical Wnt signaling pathway; Concentration of compounds for doubly synergetic activating Wnt reporter gene [1]: 5 µM |
